The nature of series [1]: Measurement of relaxivity (r1, r2) in 3T MRI phantom. The series is classed as physicochemical. To be noted: tertiary distilled water, 0.0625-1 mM, linear regression, in mM-1 s-1 (unit assumed). The protocol: The relaxivity (r1, r2) of each of synthesized Gd-DO3A-Pca, and cyclic commercial contrast agents Gadovist® and Dotarem® as comparison groups material was measured. Specifically, a phantom was prepared by diluting the gadolinium complex in tertiary distilled water to five concentrations (0.0625, 0.125, 0.25, 0.5, 1 mM), and then T1 and T2 relaxation times were measured in 3T MRI. Thus, R (Relaxation rate=1/T) of each concentration was calculated and the relaxivity (r1, r2) result of the gadolinium complex was obtained through linear regression analysis (see FIG. 3) and shown in a following Table 1.

Series [2] has as its target amyloid beta polymer (Homo sapiens, UniProt P05067). Description: Amyloid beta polymer targeting ability, MRI phantom experiment (9.4T). The class given is binding. To be noted: incubated with amyloid beta polymer 37° C. 24 hours, washed, 9.4T MR. On the procedure: (1) 221.5 uL of HFIP was added to 1 mg of amyloid beta at a concentration of 1 mM, followed by shaking for 1 hour at room temperature using a shaker to remove preaggregation. (2) The amyloid beta from which the preaggregation was removed was dried, and 221.5 uL of DMSO was added thereto to achieve a 1 mM concentration. Using a mixer and sonicator, a suspension thereof was prepared, and 878.5 uL of PBS (1×, pH 7.4) was added thereto to achieve a 0.2 mM concentration. (3) After incubating the suspension at 37° C. for 4 days using a shaker, the polymerized amyloid beta polymer was dispensed by 200 μL. Then, 20 μL of a solution in which each of Gd-DO3A-Pca and the commercial contrast agent (Gadovist®) was dissolved in PBS at 2 mM concentration was added thereto. The incubation was carried out thereon at 37° C. for 24 hours using a shaker. (4) After 24 hours has elapsed, centrifugation was performed thereon to remove the supernatant therefrom. The amyloid beta polymer was washed using PBS. 200 μL of a solution of PBS:DMSO=9:1 was added to a pellet to prepare an MRI phantom sample. As a control, a phantom sample obtained by incubating only the amyloid beta polymer was used. […]

SMILES strings stand for the structures.

Chain of amyloid beta polymer (P05067 672-713 limits assumed): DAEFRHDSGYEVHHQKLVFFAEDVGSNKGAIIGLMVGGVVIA

On to `CNC[C@H](O)[C@@H](O)[C@H](O)[C@H](O)CO.O=C([O-])CN1CCN(CC(=O)[O-])CCN(CC(=O)O)CCN(CC(=O)[O-])CC1.[Gd+3]` [Dotarem ®], for which, in series [1], the “relaxivity r1” value was determined as 3.4 ± 0.1 and the “relaxivity r2” value worked out at 3.9 ± 0.2.
As to `O=C([O-])CN1CCN(CC(=O)[O-])CCN([C@H](CO)[C@H](O)CO)CCN(CC(=O)[O-])CC1.[Gd+3]` (racemic) [Gadovist ®], in series [1], the “relaxivity r1” value was 3.9 ± 0.1 and the “relaxivity r2” value came out at 4.8 ± 0.1. The “contrast enhancement / signal intensity of phantom vs phantom of only amyloid beta polymer” value in series [2] is “little difference in contrast enhancement effect”.

The values above are taken from patent US20240399000A1, “GADOLINIUM-BASED COMPOUND AND MRI CONTRAST AGENT COMPRISING SAME” (KYUNGPOOK NATIONAL UNIVERSITY INDUSTRY-ACADEMIC COOPERATION …, priority 2021, published 2024).
